Results as given in patent US8580794B2 (AbbVie Inc., priority 2009, dated 2013).

Molecular target: GST-Bc1-2 (Homo sapiens, UniProt P10415)
Experiment: Time Resolved-Fluorescence Resonance Energy Transfer (TR-FRET) Bcl-2 binding assay with F-Bak peptide probe
Conditions: GST-Bcl-2 1 nM, F-Bak probe 100 nM, Tb-anti-GST 1 nM; '<' = below limit of detection; read-out: TR-FRET Bcl-2 Binding Ki

GST-Bc1-2, sequence (P10415 whole entry): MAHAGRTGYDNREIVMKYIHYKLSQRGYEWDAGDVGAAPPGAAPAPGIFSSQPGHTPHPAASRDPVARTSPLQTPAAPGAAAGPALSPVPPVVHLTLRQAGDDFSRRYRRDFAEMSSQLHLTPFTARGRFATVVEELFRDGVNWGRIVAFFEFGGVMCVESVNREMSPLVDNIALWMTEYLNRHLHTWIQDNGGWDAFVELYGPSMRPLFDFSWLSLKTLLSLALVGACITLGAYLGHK

SMILES	Ki [nM]
CC1(C)CCC(CN2CCN(c3ccc(C(=O)NS(=O)(=O)c4ccc(NCCCN(C5CC5)C5COC5)c([N+](=O)[O-])c4)c(Oc4cnc5[nH]ccc5c4)c3)CC2)=C(c2ccc(Cl)cc2)C1 [Example 311, 4-(4-{[2-(4-chlorophenyl)-4,4-dimethylcyclohex-1-en-1-yl]methyl}piperazin-1-yl)-N-{[4-({3-[cyclopropyl(oxetan-3-yl)amino]propyl}amino)-3-nitrophenyl]sulfonyl}-2-(1H-pyrrolo[2,3-b]pyridin-5-yloxy)benzamide]	< 0.01
CC1(C)CCC(CN2CCN(c3ccc(C(=O)NS(=O)(=O)c4cnc(OCC5CCC(N(C6CC6)C6COC6)CC5)c(Cl)c4)c(Oc4cnc5[nH]ccc5c4)c3)CC2)=C(c2ccc(Cl)cc2)C1 (centres unmarked) [Example 329, N-{[5-chloro-6-({4-[cyclopropyl(oxetan-3-yl)amino]cyclohexyl}methoxy)pyridin-3-yl]sulfonyl}-4-(4-{[2-(4-chlorophenyl)-4,4-dimethylcyclohex-1-en-1-yl]methyl}piperazin-1-yl)-2-(1H-pyrrolo[2,3-b]pyridin-5-yloxy)benzamide]	0.03
CC1(C)CCC(CN2CCN(c3ccc(C(=O)NS(=O)(=O)c4ccc(NCc5ccc(O)cc5)c([N+](=O)[O-])c4)c(Oc4cnc5[nH]ccc5c4)c3)CC2)=C(c2ccc(Cl)cc2)C1 [Example 185, 4-(4-{[2-(4-chlorophenyl)-4,4-dimethylcyclohex-1-en-1-yl]methyl}piperazin-1-yl)-N-({4-[(4-hydroxybenzyl)amino]-3-nitrophenyl}sulfonyl)-2-(1H-pyrrolo[2,3-b]pyridin-5-yloxy)benzamide]	0.022
CC1(C)CCC(CN2CCN(c3ccc(C(=O)NS(=O)(=O)c4ccc(OCCOC5CCOC5)c([N+](=O)[O-])c4)c(Oc4cnc5[nH]ccc5c4)c3)CC2)=C(c2ccc(Cl)cc2)C1 (centres unmarked) [Example 275, 4-(4-{[2-(4-chlorophenyl)-4,4-dimethylcyclohex-1-en-1-yl]methyl}piperazin-1-yl)-N-({3-nitro-4-[2-(tetrahydrofuran-3-yloxy)ethoxy]phenyl}sulfonyl)-2-(1H-pyrrolo[2,3-b]pyridin-5-yloxy)benzamide]	< 0.01
CC1(C)CCC(CN2CCN(c3ccc(C(=O)NS(=O)(=O)c4ccc(N5CCC(N6CCOCC6)CC5)c([N+](=O)[O-])c4)c(Oc4cnc5[nH]ccc5c4)c3)CC2)=C(c2ccc(Cl)cc2)C1 [Example 223, 4-(4-{[2-(4-chlorophenyl)-4,4-dimethylcyclohex-1-en-1-yl]methyl}piperazin-1-yl)-N-({4-[4-(morpholin-4-yl)piperidin-1-yl]-3-nitrophenyl}sulfonyl)-2-(1H-pyrrolo[2,3-b]pyridin-5-yloxy)benzamide]	0.053
CC1(C)CCC(CN2CCN(c3ccc(C(=O)NS(=O)(=O)c4ccc(NCC(F)(F)F)c([N+](=O)[O-])c4)c(Oc4cnc5[nH]ccc5c4)c3)CC2)=C(c2ccc(Cl)cc2)C1 [Example 26, 4-(4-{[2-(4-chlorophenyl)-4,4-dimethylcyclohex-1-en-1-yl]methyl}piperazin-1-yl)-N-({3-nitro-4-[(2,2,2-trifluoroethyl)amino]phenyl}sulfonyl)-2-(1H-pyrrolo[2,3-b]pyridin-5-yloxy)benzamide]	0.011
CC1(C)CCC(CN2CCN(c3ccc(C(=O)NS(=O)(=O)c4ccc(NC5CCN(C(C)(C)C)CC5)c(S(=O)(=O)C(F)(F)F)c4)c(Oc4cnc5[nH]ccc5c4)c3)CC2)=C(c2ccc(Cl)cc2)C1 [Example 240, N-({4-[(1-tert-butylpiperidin-4-yl)amino]-3-[(trifluoromethyl)sulfonyl]phenyl}sulfonyl)-4-(4-{[2-(4-chlorophenyl)-4,4-dimethylcyclohex-1-en-1-yl]methyl}piperazin-1-yl)-2-(1H-pyrrolo[2,3-b]pyridin-5-yloxy)benzamide]	< 0.01
CC1(C)CCC(CN2CCN(c3ccc(C(=O)NS(=O)(=O)c4ccc(NC5CCC(NC6CC6(F)F)CC5)c([N+](=O)[O-])c4)c(Oc4cnc5[nH]ccc5c4)c3)CC2)=C(c2ccc(Cl)cc2)C1 (centres unmarked) [Example 349, 4-(4-{[2-(4-chlorophenyl)-4,4-dimethylcyclohex-1-en-1-yl]methyl}piperazin-1-yl)-N-{[4-({4-[(2,2-difluorocyclopropyl)amino]cyclohexyl}amino)-3-nitrophenyl]sulfonyl}-2-(1H-pyrrolo[2,3-b]pyridin-5-yloxy)benzamide]	0.023
CC1(C)CCC(CN2CCN(c3ccc(C(=O)NS(=O)(=O)c4ccc(NC[C@H]5CN(C6COC6)CCO5)c([N+](=O)[O-])c4)c(Oc4cnc5[nH]ccc5c4)c3)CC2)=C(c2ccc(Cl)cc2)C1 [Example 361, 4-(4-{[2-(4-chlorophenyl)-4,4-dimethylcyclohex-1-en-1-yl]methyl}piperazin-1-yl)-N-{[3-nitro-4-({[(2S)-4-(oxetan-3-yl)morpholin-2-yl]methyl}amino)phenyl]sulfonyl}-2-(1H-pyrrolo[2,3-b]pyridin-5-yloxy)benzamide]	< 0.01
CN1CCC(F)(COc2ncc(S(=O)(=O)NC(=O)c3ccc(N4CCN(CC5=C(c6ccc(Cl)cc6)CC(C)(C)CC5)CC4)cc3Oc3cnc4[nH]ccc4c3)cc2Cl)CC1 [Example 269, N-({5-chloro-6-[(4-fluoro-1-methylpiperidin-4-yl)methoxy]pyridin-3-yl}sulfonyl)-4-(4-{[2-(4-chlorophenyl)-4,4-dimethylcyclohex-1-en-1-yl]methyl}piperazin-1-yl)-2-(1H-pyrrolo[2,3-b]pyridin-5-yloxy)benzamide]	0.016
CN1CCC(Nc2ccc(S(=O)(=O)NC(=O)c3ccc(N4CCN(CC5=C(c6ccc(Cl)cc6)CC(C)(C)OC5)CC4)cc3Oc3cnc4[nH]ccc4c3)cc2S(=O)(=O)C(F)(F)F)CC1 [Example 45, 4-(4-{[4-(4-chlorophenyl)-6,6-dimethyl-5,6-dihydro-2H-pyran-3-yl]methyl}piperazin-1-yl)-N-({4-[(1-methylpiperidin-4-yl)amino]-3-[(trifluoromethyl)sulfonyl]phenyl}sulfonyl)-2-(1H-pyrrolo[2,3-b]pyridin-5-yloxy)benzamide]	< 0.01
CC(C)N1CCC2(CCC(c3ccc(Cl)cc3)=C(CN3CCN(c4ccc(C(=O)NS(=O)(=O)c5ccc(NCC6CCOCC6)c(C(F)(F)F)c5)c(Oc5cnc6[nH]ccc6c5)c4)CC3)C2)CC1 [Example 273, 4-(4-{[9-(4-chlorophenyl)-3-isopropyl-3-azaspiro[5.5]undec-8-en-8-yl]methyl}piperazin-1-yl)-2-(1H-pyrrolo[2,3-b]pyridin-5-yloxy)-N-({4-[(tetrahydro-2H-pyran-4-ylmethyl)amino]-3-(trifluoromethyl)phenyl}sulfonyl)benzamide]	0.035
CC1(C)CCC(CN2CCN(c3ccc(C(=O)NS(=O)(=O)c4cnc(O[C@H]5CC[C@H](N6CCOCC6)CC5)c(Br)c4)c(Oc4cnc5[nH]ccc5c4)c3)CC2)=C(c2ccc(Cl)cc2)C1 [Example 124, Trans-N-({5-bromo-6-[(4-morpholin-4-ylcyclohexyl)oxy]pyridin-3-yl}sulfonyl)-4-(4-{[2-(4-chlorophenyl)-4,4-dimethylcyclohex-1-en-1-yl]methyl}piperazin-1-yl)-2-(1H-pyrrolo[2,3-b]pyridin-5-yloxy)benzamide]	< 0.01
CC1(C)CCC(CN2CCN(c3ccc(C(=O)NS(=O)(=O)c4ccc(NC5CCN(C6CCC6)CC5)c([N+](=O)[O-])c4)c(Oc4cnc5[nH]ccc5c4)c3)CC2)=C(c2ccc(Cl)cc2)C1 [Example 140, 4-(4-{[2-(4-chlorophenyl)-4,4-dimethylcyclohex-1-en-1-yl]methyl}piperazin-1-yl)-N-({4-[(1-cyclobutylpiperidin-4-yl)amino]-3-nitrophenyl}sulfonyl)-2-(1H-pyrrolo[2,3-b]pyridin-5-yloxy)benzamide]	< 0.01
CO[C@H]1CC[C@@H](COc2ncc(S(=O)(=O)NC(=O)c3ccc(N4CCN(CC5=C(c6ccc(Cl)cc6)CC(C)(C)CC5)CC4)cc3Oc3cnc4[nH]ccc4c3)cc2Cl)CC1 [Example 211, Cis-N-({5-chloro-6-[(4-methoxycyclohexyl)methoxy]pyridin-3-yl}sulfonyl)-4-(4-{[2-(4-chlorophenyl)-4,4-dimethylcyclohex-1-en-1-yl]methyl}piperazin-1-yl)-2-(1H-pyrrolo[2,3-b]pyridin-5-yloxy)benzamide]	0.058
CC1(C)CCC(CN2CCN(c3ccc(C(=O)NS(=O)(=O)c4ccc(OCC5(F)CCN(C6COC6)CC5)c(C#N)c4)c(Oc4cnc5[nH]ccc5c4)c3)CC2)=C(c2ccc(Cl)cc2)C1 [Example 357, 4-(4-{[2-(4-chlorophenyl)-4,4-dimethylcyclohex-1-en-1-yl]methyl}piperazin-1-yl)-N-[(3-cyano-4-{[4-fluoro-1-(oxetan-3-yl)piperidin-4-yl]methoxy}phenyl)sulfonyl]-2-(1H-pyrrolo[2,3-b]pyridin-5-yloxy)benzamide]	< 0.01
CC1(C)CCC(CN2CCN(c3ccc(C(=O)NS(=O)(=O)c4ccc(Cl)c([N+](=O)[O-])c4)c(Oc4cnc5[nH]ccc5c4)c3)CC2)=C(c2ccc(Cl)cc2)C1 [Example 82, N-[(4-chloro-3-nitrophenyl)sulfonyl]-4-(4-{[2-(4-chlorophenyl)-4,4-dimethylcyclohex-1-en-1-yl]methyl}piperazin-1-yl)-2-(1H-pyrrolo[2,3-b]pyridin-5-yloxy)benzamide]	0.328
O=C(NS(=O)(=O)c1ccc(NCCCN2CCOCC2)c([N+](=O)[O-])c1)c1ccc(N2CCN(Cc3ccccc3-c3ccc(Cl)cc3)CC2)cc1Oc1ccc2[nH]ccc2c1 [Example 88, 4-{4-[(4′-chloro-1,1′-biphenyl-2-yl)methyl]piperazin-1-yl}-2-(1H-indol-5-yloxy)-N-({4-[(3-morpholin-4-ylpropyl)amino]-3-nitrophenyl}sulfonyl)benzamide]	0.672

Same assay, conditions: TR-FRET Bcl-2 Binding Ki

SMILES	Ki [nM]
CC1(C)CCC(CN2CCN(c3ccc(C(=O)NS(=O)(=O)c4ccc(NCC5CCOCC5)c(S(=O)(=O)C(F)(F)F)c4)c(Oc4ccc5[nH]ccc5c4)c3)CC2)=C(c2ccc(Cl)cc2)C1 [Example 94, 4-(4-{[2-(4-chlorophenyl)-4,4-dimethylcyclohex-1-en-1-yl]methyl}piperazin-1-yl)-2-(1H-indol-5-yloxy)-N-({4-[(tetrahydro-2H-pyran-4-ylmethyl)amino]-3-[(trifluoromethyl)sulfonyl]phenyl}sulfonyl)benzamide]	0.678

Same assay, conditions: read-out: Bcl-2 FRET ki

SMILES	Ki [nM]
CC1(C)CCC(CN2CCN(c3ccc(C(=O)NS(=O)(=O)c4ccc(NCC5CCOCC5)c(S(=O)(=O)C(F)(F)F)c4)c(Oc4ccc5[nH]ccc5c4)c3)CC2)=C(c2ccc(Cl)cc2)C1 [Example 94, 4-(4-{[2-(4-chlorophenyl)-4,4-dimethylcyclohex-1-en-1-yl]methyl}piperazin-1-yl)-2-(1H-indol-5-yloxy)-N-({4-[(tetrahydro-2H-pyran-4-ylmethyl)amino]-3-[(trifluoromethyl)sulfonyl]phenyl}sulfonyl)benzamide]	0.678
